This note sets out measurements from US11685901B2, “Compositions and methods for organoid generation and disease modeling” (Salk Institute for Biological Studies, priority 2016, dated 2023).

The test system of this data set is hiPSC-derived hepatocytes. The data set is described as follows: Lipid accumulation and insulin resistance in hiPSC-derived hepatocytes / human mini liver. It counts as cell-based. Particulars: overnight culture. The text has this: FIGS. 6A-6H are schematics and images showing generation of functional human mini-organs in a dish. FIG. 6A is a schematic showing generation of functional human mini organs including human islets, pancreas, liver, heart, and intestine. FIGS. 6B-6C show the generation of a human heart organoid. FIG. 6B (top) provides a schematic illustrating the protocol for differentiation of a human pluripotent stem cell (hPSC) into a cardiomyocyte (when cultured in 2D) or into a mini heart (when co-cultured with hADSCs and HUVECs in 3D). FIG. 6B (bottom left) provides a plot showing relative expression of cardiomyocyte-specific genes human MLC2a (hMLC2a), human Nkx2-5 (hNkx2-5), alpha myosin heavy chain (alphaMHC), and KCNQ1 before (day 0) and at day 18 of the differentiation protocol, with and without the PPARδ agonist GW501516. At the bottom right of FIG. 6B is a videomicrograph showing beating of the hiPSC-derived cardiomyocytes. […] FIGS. 6D-6F show generation of a human liver organoid. FIG. 6D (top) provides a schematic illustrating the protocol for differentiation of a human pluripotent stem cell (hPSC) into hepatocytes. FIG. 6D (bottom left) provides a plot showing relative expression of hepatocyte-specific genes AFP, ALB, and Cyp3a7, during the differentiation of 6 independent preparations. At the bottom right of FIG. 6D is a micrograph showing hiPSC-derived hepatocytes. […]

Consider phosphatidic acid, for which the “lipid droplets in hiPSC-derived hepatocytes” value was “accumulation of lipid droplets”.
